In patent publication US20100204277A1, “Compositions and Methods for Controlling Infestation” (HATCHTECH PTY LTD., priority 2007, published 2010):

System: Lice (L) / Plutella (P) eggs
Experiment: not given
Assay type: in vivo
Conditions: 1 mM; Lice/Plutella: ND P
Procedure: Log LD50 is obtained from the observed percentage ovicidal activity by conversion using a modified logit transformation. The observed percentage ovicidal activity values were transformed using the equation:
The additional 5% was used to allow a number to be calculated when 0% and 100% activity was observed. The BA is a crude correction to the log of the concentration at which the compounds were tested. Correlation between BA values and LD50 allows the calculation of Log LD50. […] A number of metal chelating agents with potential for inhibiting the remodelling events associated with thin membrane egg hatching in lice were analysed by comparing their percentage ovicidal activity in lice at different concentrations, their logit calculated pLD50, Pref pLD50, Activity class, clogP and molar refractivity were determined.

SMILES	Activity class 0 = inactive 1 = low 2 = med 3 = high
CC(=O)CC(=O)c1ccccc1 [Benzoylacetone]	0 (A pLD50 value less than 2 is considered inactive (Class 0))

Same assay, conditions: 10 mM; Lice/Plutella: L P

SMILES	Activity class 0 = inactive 1 = low 2 = med 3 = high
c1ccc(Cc2ccccn2)cc1 [2-benzyl-pyridine]	0 (A pLD50 value less than 2 is considered inactive (Class 0))
COc1ccc(C(=O)CC(=O)c2ccc(C(C)(C)C)cc2)cc1 [1-(4-tert-butylphenyl)-3-(4-methoxyphenyl)-propane-1,3-dione]	0 (A pLD50 value less than 2 is considered inactive (Class 0))
c1ccc(-c2cc(N3CCOCC3)c3ccccc3n2)nc1 [4-Morpholin-4-yl-2-pyridin-2-yl-quinoline]	0 (A pLD50 value less than 2 is considered inactive (Class 0))
c1cnc2ccc3ncccc3c2c1 [4,7-phenanthroline]	0 (A pLD50 value less than 2 is considered inactive (Class 0))
O=C(CC(=O)C(F)(F)F)c1ccccc1 [4,4,4-Trifluoro-1-phenyl-butane-1,3-dione]	0 (A pLD50 value less than 2 is considered inactive (Class 0))
c1ccc2nc(-c3ccc4ccccc4n3)ccc2c1 [2,2′-biquinoline]	0 (A pLD50 value less than 2 is considered inactive (Class 0))

Same assay, conditions: 10 mM; Lice/Plutella: ND P

SMILES	Activity class 0 = inactive 1 = low 2 = med 3 = high
CC(=O)CC(=O)c1ccccc1 [Benzoylacetone]	1 (a pLD50 value between 2 and 3 is considered weakly active (Class 1))
O=C(CC(=O)c1cccnc1)c1cccnc1 [1,3-dipyridin-3-yl-propane-1,3-dione]	0 (A pLD50 value less than 2 is considered inactive (Class 0))
Cc1cc(C)cc(C(=O)CC(=O)c2cc(C)cc(C)c2)c1 [1,3-Bis-(3,5-dimethyl-phenyl)-propane-1,3-dione]	0 (A pLD50 value less than 2 is considered inactive (Class 0))
COc1ccc(C(=O)CC(=O)c2ccc(OC)cc2)cc1 [1,3-Bis-(4-methoxy-phenyl)-propane-1,3-dione]	0 (A pLD50 value less than 2 is considered inactive (Class 0))
CC(=O)C1CCCCC1=O (centres unmarked) [2-Acetylcyclohexanone]	0 (A pLD50 value less than 2 is considered inactive (Class 0))
COC(=O)CN [Glycine methyl ester]	0 (A pLD50 value less than 2 is considered inactive (Class 0))
N[C@@H]1CCCC[C@H]1O (relative stereo) [Trans-2-aminocyclohexanol]	0 (A pLD50 value less than 2 is considered inactive (Class 0))
CC(C)(C)c1ccc(C(=O)CC(=O)c2ccc(C(C)(C)C)cc2)cc1 [1,3-Bis-(4-tert-butyl-phenyl)-propane-1,3-dione]	0 (A pLD50 value less than 2 is considered inactive (Class 0))
CC(=O)NO [Acetohydroxamic acid]	0 (A pLD50 value less than 2 is considered inactive (Class 0))

Same assay, conditions: 10 mM; Lice/Plutella: P

SMILES	Activity class 0 = inactive 1 = low 2 = med 3 = high
O=C(CC(=O)c1ccccc1)c1ccccc1 [Dibenzoyl methane]	1 (a pLD50 value between 2 and 3 is considered weakly active (Class 1))
c1ccc(-c2ccc3ccccc3n2)nc1 [2-(2-pyridinyl)quinoline]	1 (a pLD50 value between 2 and 3 is considered weakly active (Class 1))

System: Plutella xylostella eggs (Waite strain)
Experiment: Plutella xylostella egg hatch (egg dip)
Conditions: 10 mM; Example 18; eggs on fine cloth dipped approximately 2 seconds; day 6 post laying
Procedure: Several hundred Plutella xylostella eggs (Waite strain) were collected, that had been laid over a 24 hour period.
The egg masses were then placed in a humid box at 25° C. until egg hatch. Control eggs were exposed to absolute methanol as described above. At day 6 post laying the eggs were assessed from the different treatments and the percentage of egg hatch determined relative to the control as shown in Table 9.
Batches of Plutella eggs that were laid on either fine cloth or parafilm were dipped in a specific inhibitor solution for between 2-10 seconds, the excess solution was drained by blotting with dry tissue paper. The egg masses were then placed in a humid box at 25 degrees until egg hatch. Control eggs were exposed to absolute methanol as described above or not treated. At day 6 post laying the eggs were assessed from the different treatments and the percentage of egg hatch determined relative to the controls as shown in Tables 10 and 11.
The egg masses were then placed in a humid box at 25 degrees until egg hatch. Control eggs were exposed to absolute ethanol as described above. On day 6 post laying the eggs were assessed from the different treatments and the percentage of egg hatch determined relative to the control.

SMILES	% Inhibition of egg hatch relative to control
c1ccc(-c2ccc3ccccc3n2)nc1 [2-(2-pyridinyl)quinoline]	able to inhibit

Same assay, conditions: 10 and 1 mM; cloth or parafilm

SMILES	egg hatching of Plutella eggs (Tables 10 and 11)
Cc1ccnc(-c2cc(C)ccn2)c1 [4,4′-dimethyl-2,2′-dipyridyl]	significantly inhibit
